Laboratory results from US20240109917A1 (ACTELION PHARMACEUTICALS LTD, priority 2020, published 2024).

Tests used:
[1] = biological target: VEGFR2, unphosphorylated (Homo sapiens (Human), UniProt P35968); assay: VEGFR ADP GLO Assay; assay type: biochemical
[2] = biological target: Tb-labeled inactive PDGFRβ (Homo sapiens (Human), UniProt P09619); assay: PDGFRβ LanthaScreen Assay; assay type: binding; settings: read-out: PDGFR Lantha IC50
Sequence of Tb-labeled inactive PDGFRβ (P09619 33-1106): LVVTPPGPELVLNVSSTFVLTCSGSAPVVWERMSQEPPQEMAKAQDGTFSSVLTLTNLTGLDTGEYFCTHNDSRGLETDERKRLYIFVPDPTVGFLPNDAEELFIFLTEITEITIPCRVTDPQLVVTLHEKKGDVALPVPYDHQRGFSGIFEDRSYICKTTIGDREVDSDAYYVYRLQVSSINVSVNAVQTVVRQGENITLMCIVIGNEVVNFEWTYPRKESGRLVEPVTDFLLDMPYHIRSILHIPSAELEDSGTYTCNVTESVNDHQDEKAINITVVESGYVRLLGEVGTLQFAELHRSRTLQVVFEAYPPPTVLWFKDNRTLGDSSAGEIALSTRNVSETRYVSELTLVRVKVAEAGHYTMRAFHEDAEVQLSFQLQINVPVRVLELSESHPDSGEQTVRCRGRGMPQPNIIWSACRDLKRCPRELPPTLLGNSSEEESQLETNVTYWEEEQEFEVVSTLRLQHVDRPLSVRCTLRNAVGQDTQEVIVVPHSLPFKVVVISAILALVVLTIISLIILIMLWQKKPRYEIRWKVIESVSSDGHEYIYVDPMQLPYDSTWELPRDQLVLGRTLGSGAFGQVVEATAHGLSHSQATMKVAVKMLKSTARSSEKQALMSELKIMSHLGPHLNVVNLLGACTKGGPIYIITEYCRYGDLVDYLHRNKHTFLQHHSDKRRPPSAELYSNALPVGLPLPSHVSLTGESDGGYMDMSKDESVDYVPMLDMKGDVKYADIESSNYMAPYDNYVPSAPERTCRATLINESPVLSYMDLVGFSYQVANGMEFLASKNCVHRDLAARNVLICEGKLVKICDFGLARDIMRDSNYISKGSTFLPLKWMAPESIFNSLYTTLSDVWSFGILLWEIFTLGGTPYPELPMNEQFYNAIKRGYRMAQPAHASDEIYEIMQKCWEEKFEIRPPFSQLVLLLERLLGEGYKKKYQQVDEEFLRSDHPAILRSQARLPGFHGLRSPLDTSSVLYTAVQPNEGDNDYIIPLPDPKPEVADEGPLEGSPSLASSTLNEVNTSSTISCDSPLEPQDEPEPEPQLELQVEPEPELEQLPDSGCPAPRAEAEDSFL

Sequence of VEGFR2, unphosphorylated (P35968 20-1356): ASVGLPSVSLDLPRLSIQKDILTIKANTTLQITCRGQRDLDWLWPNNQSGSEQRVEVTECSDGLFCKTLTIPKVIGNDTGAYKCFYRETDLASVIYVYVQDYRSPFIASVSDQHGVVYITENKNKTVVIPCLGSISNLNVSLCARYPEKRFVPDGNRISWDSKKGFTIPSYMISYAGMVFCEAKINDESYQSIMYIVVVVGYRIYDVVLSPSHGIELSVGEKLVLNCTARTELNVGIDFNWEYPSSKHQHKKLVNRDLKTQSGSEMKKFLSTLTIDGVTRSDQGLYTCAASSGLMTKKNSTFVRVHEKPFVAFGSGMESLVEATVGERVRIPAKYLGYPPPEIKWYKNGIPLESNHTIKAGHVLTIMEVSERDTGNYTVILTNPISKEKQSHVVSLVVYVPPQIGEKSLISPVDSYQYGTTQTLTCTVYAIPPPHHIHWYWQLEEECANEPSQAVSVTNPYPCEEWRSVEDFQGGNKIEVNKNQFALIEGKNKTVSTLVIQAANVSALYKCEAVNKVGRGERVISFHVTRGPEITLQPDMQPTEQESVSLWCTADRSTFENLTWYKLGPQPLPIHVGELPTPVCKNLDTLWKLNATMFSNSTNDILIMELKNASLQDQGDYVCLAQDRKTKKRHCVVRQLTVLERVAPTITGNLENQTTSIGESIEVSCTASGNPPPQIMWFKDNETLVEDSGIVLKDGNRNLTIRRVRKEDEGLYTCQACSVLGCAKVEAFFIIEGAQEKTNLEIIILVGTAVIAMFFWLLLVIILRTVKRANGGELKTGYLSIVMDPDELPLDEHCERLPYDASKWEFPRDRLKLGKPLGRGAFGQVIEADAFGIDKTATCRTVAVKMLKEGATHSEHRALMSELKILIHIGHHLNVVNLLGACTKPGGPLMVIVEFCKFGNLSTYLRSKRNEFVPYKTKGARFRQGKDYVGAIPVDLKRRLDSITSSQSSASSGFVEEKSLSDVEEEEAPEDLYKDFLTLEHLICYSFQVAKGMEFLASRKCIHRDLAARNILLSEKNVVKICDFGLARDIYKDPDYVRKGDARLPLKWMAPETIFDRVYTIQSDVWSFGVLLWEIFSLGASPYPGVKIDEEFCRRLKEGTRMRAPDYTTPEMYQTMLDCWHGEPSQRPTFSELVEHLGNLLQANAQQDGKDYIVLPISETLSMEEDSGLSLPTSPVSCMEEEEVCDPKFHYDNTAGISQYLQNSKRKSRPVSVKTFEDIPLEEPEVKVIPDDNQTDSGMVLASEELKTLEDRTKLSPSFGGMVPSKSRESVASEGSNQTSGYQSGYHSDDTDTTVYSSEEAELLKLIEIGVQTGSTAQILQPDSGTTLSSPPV

## Cc1ncc(NC(=O)CCN2CCCC2(C)C)cc1NC(=O)c1cnn2cc(-c3cnn(C)c3)sc12 [Example 10, N-(5-(3-(2,2-dimethylpyrrolidin-1-yl)propanamido)-2-methyl-pyridin-3-yl)-2-(1-methyl-1H-pyrazol-4-yl)pyrazolo[5,1-b]thiazole-7-carboxamide]
[1]
  IC50: > 7500 nM
[2]
  IC50: 2.8 nM

## Cc1ncc(C(=O)NCCN2CC(F)(F)C2)cc1NC(=O)c1cnn2cc(-c3ccncc3)sc12 [Example 152, N-(5-((2-(3,3-difluoroazetidin-1-yl)ethyl)carbamoyl)-2-methylpyridin-3-yl)-2-(pyridin-4-yl)pyrazolo[5,1-b]thiazole-7-carboxamide]
[1]
  IC50: > 7500 nM
[2]
  IC50: 12.4 nM

## Cc1ncc(C(=O)NCCN2CC3CCC2CC3)cc1NC(=O)c1cnn2cc(-c3cnn(CC(N)=O)c3)sc12 [Example 150, N-(5-((2-(2-azabicyclo[2.2.2]octan-2-yl)ethyl)carbamoyl)-2-methylpyridin-3-yl)-2-(1-(2-amino-2-oxoethyl)-1H-pyrazol-4-yl)pyrazolo[5,1-b]thiazole-7-carboxamide]
[1]
  IC50: > 7500 nM
[2]
  IC50: 5.5 nM

## Cc1ncc(C(=O)NCCN2CCCC23COC3)cc1NC(=O)c1cnn2cc(-c3cnn(C)c3)sc12 [Example 114, N-(5-((2-(2-oxa-5-azaspiro[3.4]octan-5-yl)ethyl)carbamoyl)-2-methylpyridin-3-yl)-2-(1-methyl-1H-pyrazol-4-yl)pyrazolo[5,1-b]thiazole-7-carboxamide]
[1]
  IC50: > 7500 nM
[2]
  IC50: 4.6 nM

## COCCn1cc(-c2cn3ncc(C(=O)Nc4cc(C(=O)NCCN5CC6(CCC6)C5)cnc4C)c3s2)cn1 [Example 168, N-(5-((2-(2-azaspiro[3.3]heptan-2-yl)ethyl)carbamoyl)-2-methylpyridin-3-yl)-2-(1-(2-methoxyethyl)-1H-pyrazol-4-yl)pyrazolo[5,1-b]thiazole-7-carboxamide]
[1]
  IC50: > 7500 nM
[2]
  IC50: 17.4 nM

## Cc1ncc(C(=O)NCCN2CCCC2(C)C)cc1NC(=O)c1cnn2cc(-c3cnn(C4CC4)c3)sc12 [Example 6, 2-(1-cyclopropyl-1H-pyrazol-4-yl)-N-(5-((2-(2,2-dimethylpyrrolidin-1-yl)ethyl)carbamoyl)-2-methylpyridin-3-yl)pyrazolo[5,1-b]thiazole-7-carboxamide]
[1]
  IC50: > 7500 nM
[2]
  IC50: 4.7 nM

## Cc1ncc(C(=O)NCCN2CCC(C)(C)C2)cc1NC(=O)c1cnn2cc(-c3ccncc3)sc12 [Example 156, N-(5-((2-(3,3-dimethylpyrrolidin-1-yl)ethyl)carbamoyl)-2-methylpyridin-3-yl)-2-(pyridin-4-yl)pyrazolo[5,1-b]thiazole-7-carboxamide]
[1]
  IC50: > 7500 nM
[2]
  IC50: 9.8 nM

## COCCn1cc(-c2cn3ncc(C(=O)Nc4cc(C(=O)NCCN5CC(C)(C)C5)cnc4C)c3s2)cn1 [Example 166, N-(5-((2-(3,3-dimethylazetidin-1-yl)ethyl)carbamoyl)-2-methylpyridin-3-yl)-2-(1-(2-methoxyethyl)-1H-pyrazol-4-yl)pyrazolo[5,1-b]thiazole-7-carboxamide]
[1]
  IC50: > 7500 nM
[2]
  IC50: 13.9 nM

## Cc1ncc(C(=O)NCCN2CC3CCC2CC3)cc1NC(=O)c1cnn2cc(-c3cnn(C)c3C)sc12 [Example 171, N-(5-((2-(2-azabicyclo[2.2.2]octan-2-yl)ethyl)carbamoyl)-2-methylpyridin-3-yl)-2-(1,5-dimethyl-1H-pyrazol-4-yl)pyrazolo[5,1-b]thiazole-7-carboxamide]
[1]
  IC50: > 7500 nM
[2]
  IC50: 2.6 nM

## Cc1ncc(NC(=O)CCCN2CCC[C@@H]2C)cc1NC(=O)c1cnn2cc(-c3cnn(C)c3)sc12 [Example 106, (S)-2-(1-methyl-1H-pyrazol-4-yl)-N-(2-methyl-5-(4-(2-methylpyrrolidin-1-yl)butanamido)pyridin-3-yl)pyrazolo[5,1-b]thiazole-7-carboxamide]
[1]
  IC50: > 7500 nM
[2]
  IC50: 67 nM
